The assay concerns the target Gal-3 (Homo sapiens, UniProt P17931). Kind of assay: biolayer interferometry, steady-state analysis. The assay is classed as binding. A general note: In BLI a coated tip is dipped into the sample, and binding shifts an interference pattern.

Chain of Gal-3 (P17931 2-250): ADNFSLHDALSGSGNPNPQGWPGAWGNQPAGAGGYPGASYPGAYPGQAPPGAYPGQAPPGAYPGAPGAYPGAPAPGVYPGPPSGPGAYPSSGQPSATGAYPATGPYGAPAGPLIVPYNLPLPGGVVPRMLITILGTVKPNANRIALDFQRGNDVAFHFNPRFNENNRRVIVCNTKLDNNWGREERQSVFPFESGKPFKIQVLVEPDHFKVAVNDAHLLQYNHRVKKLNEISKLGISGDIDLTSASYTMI

As usually defined, the Kd is the equilibrium constant for the complex coming apart. A low value points to tighter binding. In turn, `OC[C@H]1O[C@H](Oc2ccc(N=Nc3c(O)c(N=Nc4ccc(O[C@H]5O[C@H](CO)[C@H](O)[C@H](O)[C@H]5O)cc4)c(O)c(N=Nc4ccc(O[C@H]5O[C@H](CO)[C@H](O)[C@H](O)[C@H]5O)cc4)c3O)cc2)[C@H](O)[C@@H](O)[C@H]1O` [αGalY] displayed a Kd of 3.31 µM.
In the case of `OC[C@H]1O[C@@H](Oc2ccc(N=Nc3c(O)c(N=Nc4ccc(O[C@@H]5O[C@H](CO)[C@H](O)[C@H](O)[C@H]5O)cc4)c(O)c(N=Nc4ccc(O[C@@H]5O[C@H](CO)[C@H](O)[C@H](O)[C@H]5O)cc4)c3O)cc2)[C@H](O)[C@@H](O)[C@H]1O` [βGalY], the affinity, expressed as Kd, was 9.14 ± 3.42 µM. This Kd lies about 2.8-fold higher than the previous one.
The result for `OC[C@H]1O[C@@H](O[C@H]2[C@H](O)[C@@H](O)[C@H](Oc3ccc(N=Nc4c(O)c(N=Nc5ccc(O[C@@H]6O[C@H](CO)[C@@H](O[C@@H]7O[C@H](CO)[C@H](O)[C@H](O)[C@H]7O)[C@H](O)[C@H]6O)cc5)c(O)c(N=Nc5ccc(O[C@@H]6O[C@H](CO)[C@@H](O[C@@H]7O[C@H](CO)[C@H](O)[C@H](O)[C@H]7O)[C@H](O)[C@H]6O)cc5)c4O)cc3)O[C@@H]2CO)[C@H](O)[C@@H](O)[C@H]1O` [βLacY] reads 3.46 ± 1.75 µM.

(Values after article doi:10.1101/2025.01.14.632949v1 (biorxiv, 2025).)
